From PubChem BioAssay AID1918956 (Molecular Pharmacology Branch, DTP, NCI, 2023)

Tested on: OVCAR-5 complex spheroids, viability
Assay: Anticancer human tumor OVCAR-5 cell line growth inhibition;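 further: spheroids exposed to agents for seven days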;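 on viability, T/C: 100% = DMSO vehicle control wells viability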
Settings: for IC50: curve of first compound; for viability, T/C: stronger effect = lower value
Method in brief: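 Drug combinations with the LSD1 inhibitor iadademstat tested on tumor cells co-cultured as spheroids with endothelial cells and mesenchymal stem cells. Concentrations descended in half-log increments from clinical Cmax or 10 microM.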

[1] = second compound 0.1 µM, first compound 0.00949 µM
[2] = second compound 0.1 µM, first compound 0.03 µM
[3] = second compound 0.1 µM, first compound 0.0949 µM
[4] = second compound 0.1 µM, first compound 0.3 µM
[5] = second compound 0.1 µM, first compound 0.949 µM
[6] = second compound 0.1 µM, first compound 3 µM
[7] = second compound 0.316 µM, first compound 0.00949 µM
[8] = second compound 0.316 µM, first compound 0.03 µM
[9] = second compound 0.316 µM, first compound 0.0949 µM
[10] = second compound 0.316 µM, first compound 0.3 µM
[11] = second compound 0.316 µM, first compound 0.949 µM
[12] = second compound 0.316 µM, first compound 3 µM
[13] = second compound 1 µM, first compound 0.00949 µM
[14] = second compound 1 µM, first compound 0.03 µM
[15] = second compound 1 µM, first compound 0.0949 µM
[16] = second compound 1 µM, first compound 0.3 µM
[17] = second compound 1 µM, first compound 0.949 µM
[18] = second compound 1 µM, first compound 3 µM
[19] = second compound 3.16 µM, first compound 0.00949 µM
[20] = second compound 3.16 µM, first compound 0.03 µM
[21] = second compound 3.16 µM, first compound 0.0949 µM
[22] = second compound 3.16 µM, first compound 0.3 µM
[23] = second compound 3.16 µM, first compound 0.949 µM
[24] = second compound 3.16 µM, first compound 3 µM
[25] = second compound 10 µM, first compound 0.00949 µM
[26] = second compound 10 µM, first compound 0.03 µM
[27] = second compound 10 µM, first compound 0.0949 µM
[28] = second compound 10 µM, first compound 0.3 µM
[29] = second compound 10 µM, first compound 0.949 µM
[30] = second compound 10 µM, first compound 3 µM

Cn1ncnc1C1c2n[nH]c(=O)c3cc(F)cc(c23)NC1c1ccc(F)cc1 (stereo not given) + NC1CC1c1ccc(-c2cccc(O)c2)cc1
IC50 (second compound 0.1 µM): > 0.1 µM | IC50 (second compound 0.316 µM): > 0.1 µM | IC50 (second compound 1 µM): > 0.1 µM | IC50 (second compound 3.16 µM): > 0.1 µM | IC50 (second compound 10 µM): > 0.1 µM | viability, T/C (second compound 0.1 µM, first compound 0.000316 µM): 101% | viability, T/C (second compound 0.1 µM, first compound 0.001 µM): 94.1% | viability, T/C (second compound 0.1 µM, first compound 0.00316 µM): 85.4% | viability, T/C (second compound 0.1 µM, first compound 0.01 µM): 95.3% | viability, T/C (second compound 0.1 µM, first compound 0.0316 µM): 83.2% | viability, T/C (second compound 0.1 µM, first compound 0.1 µM): 77.8% | viability, T/C (second compound 0.316 µM, first compound 0.000316 µM): 94.6% | viability, T/C (second compound 0.316 µM, first compound 0.001 µM): 99.3% | viability, T/C (second compound 0.316 µM, first compound 0.00316 µM): 95.1% | viability, T/C (second compound 0.316 µM, first compound 0.01 µM): 89.9% | viability, T/C (second compound 0.316 µM, first compound 0.0316 µM): 93% | viability, T/C (second compound 0.316 µM, first compound 0.1 µM): 91.9% | viability, T/C (second compound 1 µM, first compound 0.000316 µM): 81.3% | viability, T/C (second compound 1 µM, first compound 0.001 µM): 91.4% | viability, T/C (second compound 1 µM, first compound 0.00316 µM): 89.7% | viability, T/C (second compound 1 µM, first compound 0.01 µM): 79.5% | viability, T/C (second compound 1 µM, first compound 0.0316 µM): 92.8% | viability, T/C (second compound 1 µM, first compound 0.1 µM): 85.6% | viability, T/C (second compound 3.16 µM, first compound 0.000316 µM): 88.4% | viability, T/C (second compound 3.16 µM, first compound 0.001 µM): 94.2% | viability, T/C (second compound 3.16 µM, first compound 0.00316 µM): 88.1% | viability, T/C (second compound 3.16 µM, first compound 0.01 µM): 81.9% | viability, T/C (second compound 3.16 µM, first compound 0.0316 µM): 74.3% | viability, T/C (second compound 3.16 µM, first compound 0.1 µM): 73.2% | viability, T/C (second compound 10 µM, first compound 0.000316 µM): 82.6% | viability, T/C (second compound 10 µM, first compound 0.001 µM): 96.6% | viability, T/C (second compound 10 µM, first compound 0.00316 µM): 85.5% | viability, T/C (second compound 10 µM, first compound 0.01 µM): 78.2% | viability, T/C (second compound 10 µM, first compound 0.0316 µM): 72.6% | viability, T/C (second compound 10 µM, first compound 0.1 µM): 80.3%

NS(=O)(=O)OCC1CC(n2ccc3c(NC4CCc5ccccc54)ncnc32)CC1O (stereo not given) + NC1CC1c1ccc(-c2cccc(O)c2)cc1
IC50 (second compound 0.1 µM): 0.186 µM | IC50 (second compound 0.316 µM): 0.178 µM | IC50 (second compound 1 µM): 0.145 µM | IC50 (second compound 3.16 µM): 0.156 µM | IC50 (second compound 10 µM): 0.0839 µM | viability, T/C [1]: 145% | viability, T/C [2]: 133% | viability, T/C [3]: 84.2% | viability, T/C [4]: 25.6% | viability, T/C [5]: 8.27% | viability, T/C [6]: 5.16% | viability, T/C [7]: 152% | viability, T/C [8]: 149% | viability, T/C [9]: 79.6% | viability, T/C [10]: 26.9% | viability, T/C [11]: 22.2% | viability, T/C [12]: 4.93% | viability, T/C [13]: 117% | viability, T/C [14]: 145% | viability, T/C [15]: 72% | viability, T/C [16]: 25% | viability, T/C [17]: 7.9% | viability, T/C [18]: 4.8% | viability, T/C [19]: 141% | viability, T/C [20]: 126% | viability, T/C [21]: 69.7% | viability, T/C [22]: 23.8% | viability, T/C [23]: 7.78% | viability, T/C [24]: 4.11% | viability, T/C [25]: 131% | viability, T/C [26]: 101% | viability, T/C [27]: 42.7% | viability, T/C [28]: 16.2% | viability, T/C [29]: 6.76% | viability, T/C [30]: 4.61%

O=C(C=Cc1cccc(S(=O)(=O)Nc2ccccc2)c1)NO + NC1CC1c1ccc(-c2cccc(O)c2)cc1
IC50 (second compound 0.1 µM): 0.118 µM | IC50 (second compound 0.316 µM): 0.124 µM | IC50 (second compound 1 µM): 0.0819 µM | IC50 (second compound 3.16 µM): 0.074 µM | IC50 (second compound 10 µM): 0.078 µM | viability, T/C [1]: 90.3% | viability, T/C [2]: 78.2% | viability, T/C [3]: 54.6% | viability, T/C [4]: 28.7% | viability, T/C [5]: 11.8% | viability, T/C [6]: 2.54% | viability, T/C [7]: 89.4% | viability, T/C [8]: 82.5% | viability, T/C [9]: 55.3% | viability, T/C [10]: 27.7% | viability, T/C [11]: 13.8% | viability, T/C [12]: 2.81% | viability, T/C [13]: 82.7% | viability, T/C [14]: 69.6% | viability, T/C [15]: 46.5% | viability, T/C [16]: 25.3% | viability, T/C [17]: 9.19% | viability, T/C [18]: 2.22% | viability, T/C [19]: 82.9% | viability, T/C [20]: 67.5% | viability, T/C [21]: 44.3% | viability, T/C [22]: 25.9% | viability, T/C [23]: 10.2% | viability, T/C [24]: 2.06% | viability, T/C [25]: 87.9% | viability, T/C [26]: 73.9% | viability, T/C [27]: 40.2% | viability, T/C [28]: 28.6% | viability, T/C [29]: 11.8% | viability, T/C [30]: 2.64%
